Data: ChEMBL document CHEMBL1201862, “PubChem BioAssay data set” (2004)
Activity calls are given as the source filed them.

Tests used:
Streptococcus = test: GAS UMAA2166 growth inhibition – luminescence, BacTiterGlo, counter-screen for streptokinase expression inhibitor project, dose response (AID 1915); assay type: functional, organism-based;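 note: potency for reduction of bacterial viability or growth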
[1] = test system: Streptococcus sp. 'group A'; test: Streptococcus pyogenes SK(-)GAS viability under kanamycin – luminescence, BacTiterGlo, confirmation, counter-screen for streptokinase expression inhibitor project, dose response (AID 1900); assay type: functional, organism-based
Streptokinase A = molecular target: T1, Streptokinase A (Streptococcus pyogenes serotype M1, UniProt P10520); test: viability-normalized secreted streptokinase activity reduction – plasminogen activation absorbance, OD405, dose response (AID 1914); assay type: functional, Streptococcus pyogenes M1 GAS;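 note: secreted streptokinase activity via plasminogen activation per viability signal from cell pellet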
T1 sequence (P10520 whole entry): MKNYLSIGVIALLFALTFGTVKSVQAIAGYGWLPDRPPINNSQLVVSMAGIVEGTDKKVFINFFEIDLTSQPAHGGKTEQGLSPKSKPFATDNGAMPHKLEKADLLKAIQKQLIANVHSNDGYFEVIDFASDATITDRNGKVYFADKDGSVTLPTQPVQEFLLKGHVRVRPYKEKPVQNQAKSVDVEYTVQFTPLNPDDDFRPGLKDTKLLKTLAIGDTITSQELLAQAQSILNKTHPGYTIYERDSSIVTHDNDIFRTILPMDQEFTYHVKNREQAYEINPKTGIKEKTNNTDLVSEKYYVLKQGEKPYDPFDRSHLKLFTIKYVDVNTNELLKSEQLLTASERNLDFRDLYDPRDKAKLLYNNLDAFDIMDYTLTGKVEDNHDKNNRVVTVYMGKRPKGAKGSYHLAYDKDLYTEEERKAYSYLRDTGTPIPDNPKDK

[2] = molecular target: Disintegrin and metalloproteinase domain-containing protein 17 (Homo sapiens, UniProt P78536); test: inhibition of ADAM17 substrate cleavage – biochemical, quenched FRET substrate, counter-screen for ADAM10 exosite inhibitor project, dose response (AID 743253)
Large T antigen = Large T antigen (Simian virus 40, UniProt P03070); assay type: functional, Betapolyomavirus macacae;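 note: Confirmatory-stage PubChem screen for compounds that inhibit SV40 T antigen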
[3] = molecular target: Endoplasmic reticulum aminopeptidase 1 (Homo sapiens, UniProt Q9NZ08); test: inhibition of human ERAP1 enzyme activity – biochemical, cherry-pick, set 2, plate reader, dose response (AID 743314)
[4] = molecular target: T2, High affinity choline transporter 1 (Homo sapiens, UniProt Q9GZV3); test: human choline transporter blockers, potency – cell-based, 5-point CRC, membrane potential dye, dose response (AID 504840); assay type: functional
T2 sequence (Q9GZV3 whole entry): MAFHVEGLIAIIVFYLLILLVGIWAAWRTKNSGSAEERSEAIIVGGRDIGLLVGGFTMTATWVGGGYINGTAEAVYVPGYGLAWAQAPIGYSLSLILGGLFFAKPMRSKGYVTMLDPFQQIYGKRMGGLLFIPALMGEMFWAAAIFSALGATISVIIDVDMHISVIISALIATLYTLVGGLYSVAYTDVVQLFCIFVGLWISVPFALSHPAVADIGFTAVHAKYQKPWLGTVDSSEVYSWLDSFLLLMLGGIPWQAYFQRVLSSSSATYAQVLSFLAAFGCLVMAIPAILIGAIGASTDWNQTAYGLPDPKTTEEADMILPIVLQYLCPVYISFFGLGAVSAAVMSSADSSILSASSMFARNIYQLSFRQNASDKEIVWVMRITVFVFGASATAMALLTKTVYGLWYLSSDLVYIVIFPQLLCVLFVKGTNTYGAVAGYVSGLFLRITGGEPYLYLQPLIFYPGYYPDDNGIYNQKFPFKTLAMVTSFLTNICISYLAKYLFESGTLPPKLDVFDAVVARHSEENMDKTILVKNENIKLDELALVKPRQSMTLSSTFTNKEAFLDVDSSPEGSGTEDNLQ

HEK293 [5] = test: NOD2 signaling inhibitors in MDP-stimulated cells, cell-based, uHTS, luminescence (AID 2001); assay type: functional; conditions: Homo sapiens
[6] = molecular target: Nucleotide-binding oligomerization domain-containing protein 2 (Homo sapiens, UniProt Q9HC29); test: inhibition of NOD2-driven NF-kB reporter – cell-based, luminescence, uHTS, HEK293 (AID 1566); assay type: functional
[7] = viability loss in HepG2 hepatoma cells – cell-based, ATP luminescence, cherry-pick, activator set 2, cytotoxicity control, dose response (AID 1053143); assay type: functional
[8] = molecular target: T3, Sentrin-specific protease 8 (Homo sapiens, UniProt Q96LD8); assay type: functional;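 note: luminescence read-out of SENP8 inhibition, dose-response confirmation following an ultra-high-throughput screen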
T3 sequence (Q96LD8 whole entry): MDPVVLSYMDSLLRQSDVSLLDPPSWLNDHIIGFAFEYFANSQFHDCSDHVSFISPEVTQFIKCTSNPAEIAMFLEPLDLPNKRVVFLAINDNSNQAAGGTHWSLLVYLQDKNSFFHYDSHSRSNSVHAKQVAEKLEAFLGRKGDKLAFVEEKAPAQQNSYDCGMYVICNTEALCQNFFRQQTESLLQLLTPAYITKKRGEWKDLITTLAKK

[9] = microbe, parasite or virus in culture; assay type: functional; conditions: Mycobacterium tuberculosis
[10] = molecular target: T4, Sentrin-specific protease 6 (Homo sapiens, UniProt Q9GZR1); assay type: functional;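 note: Luminescence-based dose-response confirmatory assay of SENP6 inhibition, following up an ultra-high-throughput screen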
T4 sequence (Q9GZR1 whole entry): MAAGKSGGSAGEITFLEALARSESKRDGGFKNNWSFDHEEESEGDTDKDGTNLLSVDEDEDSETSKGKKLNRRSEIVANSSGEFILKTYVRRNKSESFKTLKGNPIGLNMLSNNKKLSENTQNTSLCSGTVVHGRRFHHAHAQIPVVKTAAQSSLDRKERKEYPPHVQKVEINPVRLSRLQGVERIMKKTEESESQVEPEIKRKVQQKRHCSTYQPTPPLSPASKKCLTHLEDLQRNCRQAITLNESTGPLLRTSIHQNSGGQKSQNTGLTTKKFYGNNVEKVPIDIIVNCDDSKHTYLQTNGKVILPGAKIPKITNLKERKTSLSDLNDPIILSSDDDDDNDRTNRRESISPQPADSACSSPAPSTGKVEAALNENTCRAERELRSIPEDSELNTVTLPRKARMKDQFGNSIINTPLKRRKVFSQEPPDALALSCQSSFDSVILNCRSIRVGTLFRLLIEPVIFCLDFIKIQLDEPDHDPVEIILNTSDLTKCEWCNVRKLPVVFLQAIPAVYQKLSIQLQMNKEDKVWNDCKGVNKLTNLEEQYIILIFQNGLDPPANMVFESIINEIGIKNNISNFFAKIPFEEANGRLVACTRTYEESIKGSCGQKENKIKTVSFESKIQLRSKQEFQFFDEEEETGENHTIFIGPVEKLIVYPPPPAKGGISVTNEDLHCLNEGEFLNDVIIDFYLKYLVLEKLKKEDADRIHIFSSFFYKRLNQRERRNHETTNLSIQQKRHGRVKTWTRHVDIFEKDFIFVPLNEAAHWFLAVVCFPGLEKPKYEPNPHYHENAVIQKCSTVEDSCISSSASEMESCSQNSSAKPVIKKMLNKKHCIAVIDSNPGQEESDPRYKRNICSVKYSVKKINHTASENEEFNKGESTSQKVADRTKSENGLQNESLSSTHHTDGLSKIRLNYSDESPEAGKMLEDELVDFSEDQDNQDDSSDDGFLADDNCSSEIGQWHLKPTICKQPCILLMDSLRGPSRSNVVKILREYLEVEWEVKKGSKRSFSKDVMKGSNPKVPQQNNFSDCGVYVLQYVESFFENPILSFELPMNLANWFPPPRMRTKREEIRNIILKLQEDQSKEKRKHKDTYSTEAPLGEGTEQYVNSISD

HEK293 [11] = test: cells; assay type: functional, cell-based; conditions: Homo sapiens
[12] = molecular target: T5, Sentrin-specific protease 7 (Homo sapiens, UniProt Q9BQF6); assay type: functional;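 note: Luminescence-based dose-response confirmation of ultra-high-throughput screening hits, measuring inhibition of SENP7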
T5 sequence (Q9BQF6 whole entry): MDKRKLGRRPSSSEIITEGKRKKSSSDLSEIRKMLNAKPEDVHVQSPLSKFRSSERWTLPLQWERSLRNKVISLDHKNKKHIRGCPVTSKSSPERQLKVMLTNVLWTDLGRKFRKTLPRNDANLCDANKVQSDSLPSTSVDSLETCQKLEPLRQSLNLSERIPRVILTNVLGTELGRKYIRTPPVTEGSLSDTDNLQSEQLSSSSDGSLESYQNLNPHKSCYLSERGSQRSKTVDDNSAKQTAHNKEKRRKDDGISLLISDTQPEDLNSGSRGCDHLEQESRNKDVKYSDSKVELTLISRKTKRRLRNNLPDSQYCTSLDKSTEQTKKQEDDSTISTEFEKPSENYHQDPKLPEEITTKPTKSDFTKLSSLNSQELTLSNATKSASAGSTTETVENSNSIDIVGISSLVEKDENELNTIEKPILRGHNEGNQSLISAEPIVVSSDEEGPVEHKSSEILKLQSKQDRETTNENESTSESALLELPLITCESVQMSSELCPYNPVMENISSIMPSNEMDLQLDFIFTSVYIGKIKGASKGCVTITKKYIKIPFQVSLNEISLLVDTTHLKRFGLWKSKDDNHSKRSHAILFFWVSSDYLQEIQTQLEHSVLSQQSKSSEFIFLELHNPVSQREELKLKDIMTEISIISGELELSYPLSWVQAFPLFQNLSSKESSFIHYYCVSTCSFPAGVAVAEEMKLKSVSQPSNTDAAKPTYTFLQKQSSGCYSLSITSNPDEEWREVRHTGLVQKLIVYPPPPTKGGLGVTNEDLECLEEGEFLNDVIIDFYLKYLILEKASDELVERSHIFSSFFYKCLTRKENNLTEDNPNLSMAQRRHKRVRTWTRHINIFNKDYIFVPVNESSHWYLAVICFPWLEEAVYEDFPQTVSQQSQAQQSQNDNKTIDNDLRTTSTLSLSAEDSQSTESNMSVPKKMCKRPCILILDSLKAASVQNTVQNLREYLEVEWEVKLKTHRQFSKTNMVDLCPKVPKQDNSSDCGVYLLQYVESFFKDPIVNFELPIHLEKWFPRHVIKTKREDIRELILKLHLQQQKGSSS

HEK293 [13] = test: inhibition of NOD1-driven NF-kB reporter – cell-based, luminescence, uHTS, primary screen (AID 1578); assay type: functional; conditions: Homo sapiens
HEK293 [14] = test: cells; assay type: functional, cell-based; conditions: Homo sapiens; remark: listed apart in the source
HEK293 [15] = test: cells; assay type: functional, cell-based; conditions: Homo sapiens; remark: listed apart in the source
[16] = blockers of FN fibrillogenesis by fibroblasts – AH1F cells, Alexa488-FN fluorescence, cherry-picks, dose response (AID 1035475); assay type: functional, cell-based
[17] = Late stage assay provider results from the probe development effort to identify selective inhibitors of heat shock protein 90 (HSP90): Absorbance-based cell proliferation assay in MCF7 cells.; assay type: functional
[18] = Late stage assay provider results from the probe development effort to identify selective inhibitors of heat shock protein 90 (HSP90): Absorbance-based cell proliferation assay in SKBR3 cells.; assay type: functional; conditions: SK-BR-3

Large T antigen, sequence (P03070 whole entry): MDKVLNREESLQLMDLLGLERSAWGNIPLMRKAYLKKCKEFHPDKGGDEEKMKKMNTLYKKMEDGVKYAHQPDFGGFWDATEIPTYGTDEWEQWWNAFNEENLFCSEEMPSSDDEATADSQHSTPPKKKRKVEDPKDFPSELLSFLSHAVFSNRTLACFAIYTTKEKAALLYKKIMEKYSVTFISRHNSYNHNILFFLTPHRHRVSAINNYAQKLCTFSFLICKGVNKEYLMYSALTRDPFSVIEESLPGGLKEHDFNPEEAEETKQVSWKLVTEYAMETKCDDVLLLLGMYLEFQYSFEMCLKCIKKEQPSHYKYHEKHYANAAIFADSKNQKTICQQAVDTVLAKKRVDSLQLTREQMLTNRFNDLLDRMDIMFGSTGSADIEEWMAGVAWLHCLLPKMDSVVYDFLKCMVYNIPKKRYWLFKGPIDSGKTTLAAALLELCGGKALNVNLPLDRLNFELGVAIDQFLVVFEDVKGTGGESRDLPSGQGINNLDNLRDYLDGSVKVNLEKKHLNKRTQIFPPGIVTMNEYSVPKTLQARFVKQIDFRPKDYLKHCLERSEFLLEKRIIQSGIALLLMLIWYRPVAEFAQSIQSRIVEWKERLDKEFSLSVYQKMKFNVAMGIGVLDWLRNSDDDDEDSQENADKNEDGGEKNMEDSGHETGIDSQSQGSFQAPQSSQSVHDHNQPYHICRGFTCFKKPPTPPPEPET
Nucleotide-binding oligomerization domain-containing protein 2, sequence (Q9HC29 whole entry, the tested form may be a part): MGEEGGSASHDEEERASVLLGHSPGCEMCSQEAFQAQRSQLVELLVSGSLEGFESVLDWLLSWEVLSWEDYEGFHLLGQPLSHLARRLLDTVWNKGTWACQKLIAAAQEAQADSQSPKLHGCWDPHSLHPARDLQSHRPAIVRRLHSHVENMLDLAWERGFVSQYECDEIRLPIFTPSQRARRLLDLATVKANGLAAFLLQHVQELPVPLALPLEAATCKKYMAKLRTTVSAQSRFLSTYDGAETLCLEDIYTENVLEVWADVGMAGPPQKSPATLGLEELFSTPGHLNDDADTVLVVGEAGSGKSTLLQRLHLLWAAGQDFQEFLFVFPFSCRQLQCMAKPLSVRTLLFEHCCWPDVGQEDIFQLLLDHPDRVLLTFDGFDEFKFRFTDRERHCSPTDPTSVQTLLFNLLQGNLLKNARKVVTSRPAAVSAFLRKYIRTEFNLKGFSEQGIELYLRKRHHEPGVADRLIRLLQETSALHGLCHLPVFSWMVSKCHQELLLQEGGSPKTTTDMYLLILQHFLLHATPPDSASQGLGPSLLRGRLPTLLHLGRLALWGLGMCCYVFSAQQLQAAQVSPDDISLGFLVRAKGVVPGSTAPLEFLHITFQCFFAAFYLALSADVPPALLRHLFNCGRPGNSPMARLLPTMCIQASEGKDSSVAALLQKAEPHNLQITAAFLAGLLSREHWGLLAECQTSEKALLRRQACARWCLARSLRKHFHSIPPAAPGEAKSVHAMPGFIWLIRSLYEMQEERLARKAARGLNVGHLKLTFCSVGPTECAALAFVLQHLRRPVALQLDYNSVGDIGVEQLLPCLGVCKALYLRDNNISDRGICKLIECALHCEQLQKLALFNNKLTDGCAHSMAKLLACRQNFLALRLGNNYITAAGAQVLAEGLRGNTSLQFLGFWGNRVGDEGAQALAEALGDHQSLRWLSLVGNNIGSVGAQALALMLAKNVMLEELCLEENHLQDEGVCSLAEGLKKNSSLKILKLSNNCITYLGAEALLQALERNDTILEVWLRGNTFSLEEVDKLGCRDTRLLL
Disintegrin and metalloproteinase domain-containing protein 17, sequence (P78536 whole entry, the tested form may be a part): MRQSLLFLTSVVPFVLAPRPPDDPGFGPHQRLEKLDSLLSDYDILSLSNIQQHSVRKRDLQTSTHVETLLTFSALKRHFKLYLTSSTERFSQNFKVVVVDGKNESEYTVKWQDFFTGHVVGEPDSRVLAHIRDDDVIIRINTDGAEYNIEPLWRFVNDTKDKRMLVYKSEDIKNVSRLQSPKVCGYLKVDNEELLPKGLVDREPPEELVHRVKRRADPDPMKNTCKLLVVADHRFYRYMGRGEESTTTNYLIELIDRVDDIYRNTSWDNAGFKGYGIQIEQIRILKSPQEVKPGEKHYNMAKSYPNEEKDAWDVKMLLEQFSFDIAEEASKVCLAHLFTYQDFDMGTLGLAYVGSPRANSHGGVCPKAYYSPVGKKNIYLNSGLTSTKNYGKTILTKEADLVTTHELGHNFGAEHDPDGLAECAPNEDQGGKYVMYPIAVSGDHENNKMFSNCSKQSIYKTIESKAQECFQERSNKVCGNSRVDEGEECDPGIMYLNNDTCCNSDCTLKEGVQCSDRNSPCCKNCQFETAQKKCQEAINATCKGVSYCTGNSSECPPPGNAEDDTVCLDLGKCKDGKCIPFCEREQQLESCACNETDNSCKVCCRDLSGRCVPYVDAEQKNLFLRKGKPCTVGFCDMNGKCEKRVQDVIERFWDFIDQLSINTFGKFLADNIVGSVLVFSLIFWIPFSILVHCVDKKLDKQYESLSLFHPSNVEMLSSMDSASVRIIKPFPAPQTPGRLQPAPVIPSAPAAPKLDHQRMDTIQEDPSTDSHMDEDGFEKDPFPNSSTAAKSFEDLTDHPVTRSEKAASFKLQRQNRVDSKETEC
Endoplasmic reticulum aminopeptidase 1, sequence (Q9NZ08 whole entry): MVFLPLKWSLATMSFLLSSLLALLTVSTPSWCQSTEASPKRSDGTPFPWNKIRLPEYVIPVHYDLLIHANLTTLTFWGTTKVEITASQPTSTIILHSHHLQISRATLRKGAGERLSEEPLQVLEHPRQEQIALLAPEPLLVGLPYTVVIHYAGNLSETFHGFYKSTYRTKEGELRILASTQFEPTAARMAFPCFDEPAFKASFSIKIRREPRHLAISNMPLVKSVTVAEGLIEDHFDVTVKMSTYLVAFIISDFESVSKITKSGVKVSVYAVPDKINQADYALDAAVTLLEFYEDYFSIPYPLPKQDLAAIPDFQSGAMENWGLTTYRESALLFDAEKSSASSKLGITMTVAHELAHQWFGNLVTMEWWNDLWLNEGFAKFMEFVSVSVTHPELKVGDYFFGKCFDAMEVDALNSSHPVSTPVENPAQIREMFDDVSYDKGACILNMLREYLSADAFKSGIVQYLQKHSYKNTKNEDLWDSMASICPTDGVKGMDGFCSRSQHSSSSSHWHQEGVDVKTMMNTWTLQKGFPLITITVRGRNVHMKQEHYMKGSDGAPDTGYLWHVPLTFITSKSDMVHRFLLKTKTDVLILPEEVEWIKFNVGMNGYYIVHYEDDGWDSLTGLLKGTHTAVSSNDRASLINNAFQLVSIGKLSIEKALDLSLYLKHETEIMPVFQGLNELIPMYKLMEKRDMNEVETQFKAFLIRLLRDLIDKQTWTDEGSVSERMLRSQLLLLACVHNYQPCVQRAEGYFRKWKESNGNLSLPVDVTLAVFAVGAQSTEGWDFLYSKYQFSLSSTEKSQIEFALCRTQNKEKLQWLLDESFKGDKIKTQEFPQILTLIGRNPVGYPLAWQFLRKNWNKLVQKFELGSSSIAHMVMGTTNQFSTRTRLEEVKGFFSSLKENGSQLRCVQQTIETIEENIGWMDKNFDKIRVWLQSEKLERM

With `CCCN(CC(=O)Nc1cc(Cl)cc(Cl)c1)CC(=O)Nc1ccc(F)c(F)c1F` the EC50 (Streptococcus) was 10.4 µM (active), the EC50 [1] was 1.77 µM (active) and the EC50 (Streptokinase A) was 1.48 µM (active). For the same compound, the IC50 [2] was > 69.5 µM (inactive).

In the case of `CSC1=NS(=O)(=O)c2c(C)nn(C)c2S1`, the IC50 (Large T antigen) is reported as 32.8 µM (active), the AC50 [3] is reported as 18.7 µM (active) and the IC50 [4] is reported as 10.7 µM (active).

For `CCOc1cccc(/C=C/c2ccc3cccc(O)c3n2)c1O`, the IC50 (HEK293 [5]) was 3.71 µM (inactive), the EC50 [6] was > 20 µM (inactive) and the AC50 [7] was 26 µM (active). For the same compound, the IC50 [8] was > 100 µM (inactive), the CC50 [9] was 35.7 µM (active) and the IC50 [10] was 7.66 µM (active). The IC50 (HEK293 [11]) was > 20 µM (inactive), the IC50 [12] was 4.32 µM (active) and the EC50 (HEK293 [13]) was > 20 µM (inactive). The IC50 (HEK293 [14]) was > 20 µM (inactive) and the IC50 (HEK293 [15]) was 11.5 µM (active).

For `C[C@@H]1CN([C@H](C)CO)C(=O)c2cccc(NC(=O)Nc3ccc(C(F)(F)F)cc3)c2O[C@H]1CN(C)C(=O)Nc1cccc2ccccc12`, the AC50 [16] was 57.7 µM (active).

With `O=C(O)CCCCOc1ccc2cc(Br)c(=O)oc2c1` the IC50 [17] was > 100 µM (inactive) and the IC50 [18] was > 100 µM (inactive).
